Assay results as given in patent US8426408B2, “Pyrimidine inhibitors of kinases” (AbbVie Inc., priority 2009, dated 2013).
pKi: −log10 of the molar value.

Experiments:
Type in all cases: biochemical
Aurora B = target: T1, Aurora B (Homo sapiens, UniProt Q96GD4); experiment: Aurora B enzyme inhibition (time-resolved fluorescence, histone H3 peptide); details: 1 mM ATP
T1 construct: Active Aurora B enzyme (recombinant residues 1-344)
In short: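 Recombinant Aurora B (residues 1-344) with GST-INCENP phosphorylated biotinylated histone H3 (1-21) peptide at 1 mM ATP in HEPES pH 7.4 with MgCl2, orthovanadate and Triton X-100 for 1 h. After EDTA stop, the phosphopeptide was detected by TR-FRET (Eu-cryptate anti-phospho-H3 / SA-APC, 665/615 nm ratio). IC50 from an exponential fit.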

Aurora A = target: T2, Aurora A (Homo sapiens, UniProt O14965); experiment: Aurora A enzyme inhibition (time-resolved fluorescence, STK substrate-2); details: 1 mM ATP
T2 sequence (O14965 1-403): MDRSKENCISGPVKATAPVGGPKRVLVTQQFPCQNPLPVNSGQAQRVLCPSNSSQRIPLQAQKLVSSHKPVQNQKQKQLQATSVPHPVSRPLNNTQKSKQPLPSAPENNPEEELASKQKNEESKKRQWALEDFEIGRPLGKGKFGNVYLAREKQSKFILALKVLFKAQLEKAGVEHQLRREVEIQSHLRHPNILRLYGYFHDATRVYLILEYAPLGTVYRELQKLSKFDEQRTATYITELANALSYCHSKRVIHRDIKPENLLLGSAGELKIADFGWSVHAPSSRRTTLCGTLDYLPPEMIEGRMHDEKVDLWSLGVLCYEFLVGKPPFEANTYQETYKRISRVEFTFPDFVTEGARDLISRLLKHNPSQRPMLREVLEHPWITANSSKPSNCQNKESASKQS
In short: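 Active enzyme incubated 1 h with biotinylated STK substrate-2, 1 mM ATP and inhibitor in Hepes pH 7.4 with MgCl2, orthovanadate and Triton X-100. EDTA stop; phosphopeptide detected by Eu-cryptate anti-phospho-STK/SA-XL665 TR-FRET (665/615 nm ratio); IC50 by exponential fit.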

KDR = KDR (Homo sapiens, UniProt P35968); experiment: KDR HTRF in vitro kinase assay; design: purified enzyme (His6-KDR 789-1354, MW 63 kD); His6 (N); details: 1 mM ATP; read-out: KDR enzyme inhibition data (Ki)
Chain of KDR (P35968 789-1354): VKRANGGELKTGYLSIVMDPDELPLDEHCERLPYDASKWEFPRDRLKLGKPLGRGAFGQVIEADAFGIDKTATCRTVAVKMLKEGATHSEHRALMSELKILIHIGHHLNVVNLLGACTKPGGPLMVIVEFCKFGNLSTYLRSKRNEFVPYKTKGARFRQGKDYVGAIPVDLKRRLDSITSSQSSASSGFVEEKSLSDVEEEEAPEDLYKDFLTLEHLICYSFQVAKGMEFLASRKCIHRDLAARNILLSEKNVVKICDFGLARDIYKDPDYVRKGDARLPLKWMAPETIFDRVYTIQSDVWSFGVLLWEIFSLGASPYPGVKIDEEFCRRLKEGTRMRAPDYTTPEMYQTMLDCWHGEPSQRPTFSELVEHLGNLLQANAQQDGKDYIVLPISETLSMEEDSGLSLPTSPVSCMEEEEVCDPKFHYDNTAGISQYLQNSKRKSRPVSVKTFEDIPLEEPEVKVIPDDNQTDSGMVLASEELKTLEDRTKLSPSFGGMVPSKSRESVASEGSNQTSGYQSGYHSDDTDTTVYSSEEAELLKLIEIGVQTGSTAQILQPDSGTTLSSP
In short: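 His6-KDR 789-1354 (7 ng/well) with 0.5 μM biotinylated peptide substrate and 1 mM ATP in HEPES pH 7.1, MgCl2/MnCl2, 60 min at room temperature. EDTA-quenched, detected by streptavidin-XL-665 plus Eu-kryptate anti-phosphotyrosine HTRF after 3 h; IC50 from 620/665 nm ratio.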

T1 sequence (Q96GD4 whole entry, the tested form may be a part): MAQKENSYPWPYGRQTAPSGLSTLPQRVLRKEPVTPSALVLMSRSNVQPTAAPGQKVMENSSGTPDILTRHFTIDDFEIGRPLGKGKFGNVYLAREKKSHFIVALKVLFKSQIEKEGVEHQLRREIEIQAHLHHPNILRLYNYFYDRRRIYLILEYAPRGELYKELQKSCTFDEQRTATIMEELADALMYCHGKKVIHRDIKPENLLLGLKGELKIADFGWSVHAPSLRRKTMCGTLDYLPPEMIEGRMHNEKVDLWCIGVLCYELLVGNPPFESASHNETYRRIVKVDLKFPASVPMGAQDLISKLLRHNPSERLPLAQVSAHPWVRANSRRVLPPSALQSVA
T1 sequence (Q9NQS7 826-918 partner limits assumed): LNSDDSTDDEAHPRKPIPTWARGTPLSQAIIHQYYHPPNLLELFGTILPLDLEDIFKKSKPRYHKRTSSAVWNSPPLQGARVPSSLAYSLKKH

| Compound | pKi (Aurora B) | pKi (Aurora A) | pKi (KDR) |
| --- | --- | --- | --- |
| CCn1cc(Nc2ncc(C(F)(F)F)c(N[C@@H]3[C@H](C(=O)NCCO)[C@H]4C=C[C@@H]3C4)n2)cn1.CCn1cc(Nc2ncc(C(F)(F)F)c(N[C@H]3[C@@H](C(=O)NCCO)[C@@H]4C=C[C@H]3C4)n2)cn1 (mixture of isomers) [Example 68, (1S,2S,3R,4R)-3-{[2-[(1-ethyl-1H-pyrazol-4-yl)amino]-5-(trifluoromethyl)pyrimidin-4-yl]amino}-N-(2-hydroxyethyl)bicyclo[2.2.1]hept-5-ene-2-carboxamide and (1R,2R,3S,4S)-3-{[2-[(1-ethyl-1H-pyrazol-4-yl)amino]-5-(trifluoromethyl)pyrimidin-4-yl]amino}-N-(2-hydroxyethyl)bicyclo[2.2.1]hept-5-ene-2-carboxamide] | > 7.00 | > 7.00 | > 7.00 |
| CCn1cc(Nc2ncc(C(F)(F)F)c(N[C@@H]3[C@H](C(=O)NC4CC4)[C@H]4C=C[C@@H]3C4)n2)cn1.CCn1cc(Nc2ncc(C(F)(F)F)c(N[C@H]3[C@@H](C(=O)NC4CC4)[C@@H]4C=C[C@H]3C4)n2)cn1 (mixture of isomers) [Example 71, (1S,2S,3R,4R)—N-cyclopropyl-3-{[2-[(1-ethyl-1H-pyrazol-4-yl)amino]-5-(trifluoromethyl)pyrimidin-4-yl]amino}bicyclo[2.2.1]hept-5-ene-2-carboxamide and (1R,2R,3S,4S)—N-cyclopropyl-3-{[2-[(1-ethyl-1H-pyrazol-4-yl)amino]-5-(trifluoromethyl)pyrimidin-4-yl]amino}bicyclo[2.2.1]hept-5-ene-2-carboxamide] | > 7.00 | > 7.00 | > 7.00 |
| NC(=O)[C@@H]1[C@H](Nc2nc(Nc3cnn(CCN4CCCC4)c3)ncc2Cl)[C@H]2C=C[C@@H]1C2 (racemic) [Example 34, (1S,2S,3R,4R)-3-[(5-chloro-2-{[1-(2-pyrrolidin-1-ylethyl)-1H-pyrazol-4-yl]amino}pyrimidin-4-yl)amino]bicyclo[2.2.1]hept-5-ene-2-carboxamide and (1R,2R,3S,4S)-3-[(5-chloro-2-{[1-(2-pyrrolidin-1-ylethyl)-1H-pyrazol-4-yl]amino}pyrimidin-4-yl)amino]bicyclo[2.2.1]hept-5-ene-2-carboxamide] | > 7.00 | > 7.00 | > 7.00 |
| CCN(CC)CCn1cc(Nc2ncc(Cl)c(N[C@H]3[C@@H](C(N)=O)[C@@H]4C=C[C@H]3C4)n2)cn1 (racemic) [Example 35, (1S,2S,3R,4R)-3-{[5-chloro-2-({1-[2-(diethylamino)ethyl]-1H-pyrazol-4-yl}amino)pyrimidin-4-yl]amino}bicyclo[2.2.1]hept-5-ene-2-carboxamide and (1R,2R,3S,4S)-3-{[5-chloro-2-({1-[2-(diethylamino)ethyl]-1H-pyrazol-4-yl}amino)pyrimidin-4-yl]amino}bicyclo[2.2.1]hept-5-ene-2-carboxamide] | > 7.00 | > 7.00 | > 7.00 |
| NC(=O)[C@@H]1[C@H](Nc2nc(Nc3cnn(CCN4CCCC4)c3)ncc2Br)[C@H]2C=C[C@@H]1C2 (racemic) [Example 44, (1S,2S,3R,4R)-3-[(5-bromo-2-{[1-(2-pyrrolidin-1-ylethyl)-1H-pyrazol-4-yl]amino}pyrimidin-4-yl)amino]bicyclo[2.2.1]hept-5-ene-2-carboxamide and (1R,2R,3S,4S)-3-[(5-bromo-2-{[1-(2-pyrrolidin-1-ylethyl)-1H-pyrazol-4-yl]amino}pyrimidin-4-yl)amino]bicyclo[2.2.1]hept-5-ene-2-carboxamide] | > 7.00 | > 7.00 | > 7.00 |
| CNC(=O)[C@@H]1[C@H](Nc2nc(Nc3cnn(C)c3)ncc2Cl)[C@H]2C=C[C@@H]1C2 (racemic) [Example 50, (1S,2S,3R,4R)-3-({5-chloro-2-[(1-methyl-1H-pyrazol-4-yl)amino]pyrimidin-4-yl}amino)-N-methylbicyclo[2.2.1]hept-5-ene-2-carboxamide and (1R,2R,3S,4S)-3-({5-chloro-2-[(1-methyl-1H-pyrazol-4-yl)amino]pyrimidin-4-yl}amino)-N-methylbicyclo[2.2.1]hept-5-ene-2-carboxamide] | > 7.00 | > 7.00 | > 7.00 |
| CNC(=O)Cn1cc(Nc2ncc(Cl)c(NC3C4CCC(C4)C3C(N)=O)n2)cn1 (racemic) [Example 61, (1R,2S,3R,4S)-3-{[5-chloro-2-({1-[2-(methylamino)-2-oxoethyl]-1H-pyrazol-4-yl}amino)pyrimidin-4-yl]amino}bicyclo[2.2.1]heptane-2-carboxamide and (1S,2R,3S,4R)-3-{[5-chloro-2-({1-[2-(methylamino)-2-oxoethyl]-1H-pyrazol-4-yl}amino)pyrimidin-4-yl]amino}bicyclo[2.2.1]heptane-2-carboxamide] | > 7.00 | > 7.00 | > 7.00 |
| Cn1cc(Nc2ncc(Cl)c(N[C@H]3[C@@H](C(N)=O)[C@@H]4C=C[C@H]3C4)n2)cn1 [Example 41, (1S,2S,3R,4R)-3-({5-chloro-2-[(1-methyl-1H-pyrazol-4-yl)amino]pyrimidin-4-yl}amino)bicyclo[2.2.1]hept-5-ene-2-carboxamide] | > 7.00 | > 7.00 | > 7.00 |
| NC(=O)[C@@H]1[C@H](Nc2nc(Nc3cnn(CCO)c3)ncc2Cl)[C@H]2C=C[C@@H]1C2 [Example 65, (1S,2S,3R,4R)-3-[(5-chloro-2-{[1-(2-hydroxyethyl)-1H-pyrazol-4-yl]amino}pyrimidin-4-yl)amino]bicyclo[2.2.1]hept-5-ene-2-carboxamide] | > 7.00 | > 7.00 | > 7.00 |
| NC(=O)[C@@H]1[C@H](Nc2nc(Nc3cnn([C@H]4CCNC4)c3)ncc2Cl)[C@H]2C=C[C@@H]1C2 [Example 72, (1S,2S,3R,4R)-3-{[5-chloro-2-({1-[(3S)-pyrrolidin-3-yl]-1H-pyrazol-4-yl}amino)pyrimidin-4-yl]amino}bicyclo[2.2.1]hept-5-ene-2-carboxamide] | > 7.00 | > 7.00 | > 7.00 |

The remaining lines, values ahead:

| pKi (Aurora B) | pKi (Aurora A) | pKi (KDR) | Compound |
| --- | --- | --- | --- |
| > 7.00 | > 7.00 | > 7.00 | CCn1cc(Nc2ncc(Cl)c(N[C@H]3[C@@H](C(N)=O)[C@@H]4C=C[C@H]3C4)n2)cn1 [Example 42, (1S,2S,3R,4R)-3-({5-chloro-2-[(1-ethyl-1H-pyrazol-4-yl)amino]pyrimidin-4-yl}amino)bicyclo[2.2.1]hept-5-ene-2-carboxamide] |
| > 7.00 | > 7.00 | > 7.00 | CCn1cc(Nc2ncc(C(F)(F)F)c(N[C@H]3[C@@H](C(N)=O)[C@@H]4C=C[C@H]3C4)n2)cn1 [Example 62, (1S,2S,3R,4R)-3-{[2-[(1-ethyl-1H-pyrazol-4-yl)amino]-5-(trifluoromethyl)pyrimidin-4-yl]amino}bicyclo[2.2.1]hept-5-ene-2-carboxamide] |
| > 7.00 | > 7.00 | > 7.00 | NC(=O)[C@@H]1[C@H](Nc2nc(Nc3cnn(CCO)c3)ncc2C(F)(F)F)[C@H]2C=C[C@@H]1C2 [Example 63, (1S,2S,3R,4R)-3-{[2-{[1-(2-hydroxyethyl)-1H-pyrazol-4-yl]amino}-5-(trifluoromethyl)pyrimidin-4-yl]amino}bicyclo[2.2.1]hept-5-ene-2-carboxamide] |
| > 7.00 | > 7.00 | > 7.00 | NC(=O)[C@@H]1[C@H](Nc2nc(Nc3cnn(CC(F)(F)F)c3)ncc2C(F)(F)F)[C@H]2C=C[C@@H]1C2 [Example 64, (1S,2S,3R,4R)-3-{[2-{[1-(2,2,2-trifluoroethyl)-1H-pyrazol-4-yl]amino}-5-(trifluoromethyl)pyrimidin-4-yl]amino}bicyclo[2.2.1]hept-5-ene-2-carboxamide] |
| > 7.00 | > 7.00 | > 7.00 | NC(=O)[C@@H]1[C@H](Nc2nc(Nc3cnn(CC(F)(F)F)c3)ncc2Cl)[C@H]2C=C[C@@H]1C2 [Example 66, (1S,2S,3R,4R)-3-[(5-chloro-2-{[1-(2,2,2-trifluoroethyl)-1H-pyrazol-4-yl]amino}pyrimidin-4-yl)amino]bicyclo[2.2.1]hept-5-ene-2-carboxamide] |
| > 7.00 | > 7.00 | > 7.00 | C[C@@H](O)Cn1cc(Nc2ncc(C(F)(F)F)c(N[C@H]3[C@@H](C(N)=O)[C@@H]4C=C[C@H]3C4)n2)cn1 [Example 69, (1S,2S,3R,4R)-3-{[2-({1-[(2R)-2-hydroxypropyl]-1H-pyrazol-4-yl}amino)-5-(trifluoromethyl)pyrimidin-4-yl]amino}bicyclo[2.2.1]hept-5-ene-2-carboxamide] |
